Laboratory results taken from PubChem BioAssay (NCI).
Where “and” joins values, the source holds several entries; their conditions need not be identical. Identical values can stand only once.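 Assay format: 96-well plates, 48-hour exposure. GI50 marks 50% less growth. At the TGI there is no net growth.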

Experiments:
Assay in all cases: NCI-60 cell line screen, 48 h
ACHN renal = test system: ACHN renal
SF-295 CNS = test system: SF-295 CNS
K-562 leukemia = test system: K-562 leukemia
SF-539 CNS = test system: SF-539 CNS
IGROV1 ovarian = test system: IGROV1 ovarian
M14 melanoma = test system: M14 melanoma
HOP-92 NSCLC = test system: HOP-92 NSCLC
CCRF-CEM leukemia = test system: CCRF-CEM leukemia
HT29 colon = test system: HT29 colon
SK-MEL-5 melanoma = test system: SK-MEL-5 melanoma

C/C=C1\NC(=O)[C@H]2CSSCCC=C[C@H](CC(=O)N[C@H](C(C)C)C(=O)N2)OC(=O)[C@H](C(C)C)NC1=O
GI50 (ACHN renal): < 0.01 µM | TGI (ACHN renal): 0.0459 µM and 0.0364 µM | GI50 (SF-295 CNS): < 0.01 µM | TGI (SF-295 CNS): < 0.01 µM and 0.013 µM | GI50 (K-562 leukemia): < 0.01 µM and 0.000147 µM | GI50 (SF-539 CNS): < 0.01 µM | TGI (SF-539 CNS): 0.179 µM and 0.051 µM and 0.0469 µM | GI50 (IGROV1 ovarian): < 0.01 µM and 0.000421 µM | GI50 (M14 melanoma): < 0.01 µM | TGI (M14 melanoma): 0.263 µM and 0.0826 µM and 0.206 µM | GI50 (HOP-92 NSCLC): < 0.01 µM | TGI (HOP-92 NSCLC): < 0.01 µM and 0.0161 µM and < 0.0324 µM | GI50 (CCRF-CEM leukemia): < 0.01 µM | TGI (CCRF-CEM leukemia): 0.273 µM and 0.0534 µM and 0.102 µM | GI50 (HT29 colon): < 0.01 µM | TGI (HT29 colon): < 0.01 µM and 0.0116 µM and 0.0262 µM | GI50 (SK-MEL-5 melanoma): < 0.01 µM | TGI (SK-MEL-5 melanoma): < 0.01 µM and 0.000359 µM

CC[C@]1(O)C(=O)OCc2c1cc1n(c2=O)Cc2cc3c(N)cccc3nc2-1
TGI (ACHN renal): > 100 µM | TGI (SF-295 CNS): > 100 µM | TGI (K-562 leukemia): > 100 µM | TGI (SF-539 CNS): > 100 µM | TGI (IGROV1 ovarian): > 100 µM | TGI (M14 melanoma): > 100 µM | TGI (HOP-92 NSCLC): > 100 µM | TGI (CCRF-CEM leukemia): > 100 µM | TGI (HT29 colon): > 100 µM | TGI (SK-MEL-5 melanoma): > 100 µM

C=CC(=O)Nc1cc2c(Nc3ccc(F)c(Cl)c3)ncnc2cc1OCCCN1CCOCC1
GI50 (ACHN renal): < 0.01 µM and 0.0448 µM | TGI (ACHN renal): 2.11 µM and > 10 µM | GI50 (SF-295 CNS): 4.12 µM | TGI (SF-295 CNS): 17.4 µM and > 10 µM | GI50 (K-562 leukemia): 1.91 µM and 2.84 µM | TGI (K-562 leukemia): 14.5 µM and > 10 µM | GI50 (SF-539 CNS): 1.58 µM and 3.89 µM | TGI (SF-539 CNS): 3.5 µM and > 10 µM | GI50 (IGROV1 ovarian): 0.993 µM and 0.284 µM | TGI (IGROV1 ovarian): 3.26 µM and 2.88 µM | GI50 (M14 melanoma): 1.7 µM and 4.48 µM | TGI (M14 melanoma): 3.52 µM and > 10 µM | GI50 (HOP-92 NSCLC): 0.534 µM and 0.551 µM | TGI (HOP-92 NSCLC): 2.49 µM and 5.9 µM | GI50 (CCRF-CEM leukemia): 2.19 µM and 2.63 µM | TGI (CCRF-CEM leukemia): > 27.4 µM | GI50 (HT29 colon): 1.64 µM and 2.26 µM | TGI (HT29 colon): 3.48 µM and > 8.38 µM | GI50 (SK-MEL-5 melanoma): 3.3 µM and > 7.32 µM | TGI (SK-MEL-5 melanoma): 13.3 µM and > 10 µM

NCCCCNc1ccc2c(=O)[nH][nH]c(=O)c2c1
TGI (ACHN renal): > 100 µM | TGI (SF-295 CNS): > 100 µM | TGI (K-562 leukemia): > 100 µM | TGI (SF-539 CNS): > 100 µM | TGI (IGROV1 ovarian): > 100 µM | TGI (M14 melanoma): > 100 µM | TGI (HOP-92 NSCLC): > 100 µM | TGI (CCRF-CEM leukemia): > 100 µM | TGI (HT29 colon): > 100 µM | TGI (SK-MEL-5 melanoma): > 100 µM

O=C1c2cc(Cl)ccc2-c2c1c1ccc([N+](=O)[O-])cc1c(=O)n2CCCBr
GI50 (ACHN renal): 2.42 µM | TGI (ACHN renal): 7.25 µM | GI50 (SF-295 CNS): 2.63 µM | TGI (SF-295 CNS): > 100 µM | GI50 (K-562 leukemia): 4.46 µM | TGI (K-562 leukemia): > 100 µM | GI50 (SF-539 CNS): 3.94 µM | TGI (SF-539 CNS): > 100 µM | GI50 (IGROV1 ovarian): 5.77 µM | TGI (IGROV1 ovarian): 90.8 µM | GI50 (M14 melanoma): 3.91 µM | TGI (M14 melanoma): 64.2 µM | GI50 (HOP-92 NSCLC): 0.539 µM | TGI (HOP-92 NSCLC): 8.98 µM | GI50 (CCRF-CEM leukemia): 0.625 µM | TGI (CCRF-CEM leukemia): > 100 µM | GI50 (HT29 colon): 12.5 µM | TGI (HT29 colon): > 100 µM | GI50 (SK-MEL-5 melanoma): 3.21 µM | TGI (SK-MEL-5 melanoma): 24.3 µM

Cc1cc2c(cc1Cl)SC1=NN(C)C(N(C)C)N1S2(=O)=O (stereo not drawn)
GI50 (ACHN renal): > 100 µM | TGI (ACHN renal): > 100 µM | GI50 (SF-295 CNS): > 100 µM | TGI (SF-295 CNS): > 100 µM | GI50 (K-562 leukemia): > 100 µM | TGI (K-562 leukemia): > 100 µM | GI50 (SF-539 CNS): > 100 µM | TGI (SF-539 CNS): > 100 µM | GI50 (IGROV1 ovarian): > 100 µM | TGI (IGROV1 ovarian): > 100 µM | GI50 (M14 melanoma): > 100 µM | TGI (M14 melanoma): > 100 µM | GI50 (HOP-92 NSCLC): 55 µM | TGI (HOP-92 NSCLC): > 100 µM | GI50 (CCRF-CEM leukemia): > 100 µM | TGI (CCRF-CEM leukemia): > 100 µM | GI50 (HT29 colon): > 100 µM | TGI (HT29 colon): > 100 µM | GI50 (SK-MEL-5 melanoma): > 100 µM | TGI (SK-MEL-5 melanoma): > 100 µM

COc1ccc(C2=NN(C=O)C(c3cccc(Nc4ccnc5cc(Cl)ccc45)c3)C2)cc1 (stereo not drawn)
GI50 (ACHN renal): 4.59 µM | TGI (ACHN renal): 62.7 µM | GI50 (SF-295 CNS): 1.24 µM | TGI (SF-295 CNS): 23 µM | GI50 (K-562 leukemia): 0.511 µM | TGI (K-562 leukemia): 11.3 µM | GI50 (SF-539 CNS): 2.34 µM | TGI (SF-539 CNS): 7.41 µM | GI50 (IGROV1 ovarian): 3.71 µM | TGI (IGROV1 ovarian): > 100 µM | GI50 (M14 melanoma): 2.34 µM | TGI (M14 melanoma): 15.9 µM | GI50 (HOP-92 NSCLC): 3.41 µM | TGI (HOP-92 NSCLC): > 100 µM | GI50 (CCRF-CEM leukemia): 2.14 µM | TGI (CCRF-CEM leukemia): 13.1 µM | GI50 (HT29 colon): 1.65 µM | TGI (HT29 colon): 9.7 µM | GI50 (SK-MEL-5 melanoma): 0.922 µM | TGI (SK-MEL-5 melanoma): 3.71 µM
